Laboratory results from PubChem BioAssay (NCI).
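Five concentrations, 48 hours, 96-well plates. Abbreviation: GI50, concentration required for 50% inhibition of growth. Definition used: TGI = concentration required for complete inhibition of growth.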

Experiments:
Assay in all cases: NCI anticancer screen, dose series, 48 h
[1] = tested on: ACHN renal
[2] = tested on: HT29 colon
[3] = tested on: M14 melanoma
[4] = tested on: MALME-3M melanoma
[5] = tested on: OVCAR-5 ovarian
[6] = tested on: RXF 393 renal
[7] = tested on: SK-MEL-2 melanoma
[8] = tested on: TK-10 renal
[9] = tested on: UACC-257 melanoma
[10] = tested on: T-47D breast

| SMILES | GI50 [1] [µM] | TGI [1] [µM] | GI50 [2] [µM] | TGI [2] [µM] | GI50 [3] [µM] | TGI [3] [µM] | GI50 [4] [µM] | TGI [4] [µM] | GI50 [5] [µM] | TGI [5] [µM] | GI50 [6] [µM] | TGI [6] [µM] | GI50 [7] [µM] | TGI [7] [µM] | GI50 [8] [µM] | TGI [8] [µM] | GI50 [9] [µM] | TGI [9] [µM] | GI50 [10] [µM] | TGI [10] [µM] |
| --- | --- | --- | --- | --- | --- | --- | --- | --- | --- | --- | --- | --- | --- | --- | --- | --- | --- | --- | --- | --- |
| COc1c(O)cc2oc3cc(O)c(CC=C(C)C)c(O)c3c(=O)c2c1C/C=C(\C)CCC=C(C)C | 4.98 | 9.4 | 6.34 | 12.4 | 6.17 | 12.6 | 6.34 | 12 | 5.19 | 10.6 | 5.53 | 10.2 | 6.46 | 12.1 | 8.15 | 15.5 | 5.63 | 10.5 | – | – |
| Cc1cc(N(CCC#N)CCC#N)ccc1N=Nc1ccccc1[N+](=O)[O-] | – | > 100 | – | > 100 | – | > 100 | – | > 100 | – | > 100 | – | > 100 | – | > 100 | – | > 100 | – | > 100 | – | – |
| NC(=O)c1csc(C2O[C@@H](COP(=O)(O)OP(=O)(O)OC[C@H]3OC(n4cnc5c(N)ncnc54)[C@H](O)[C@@H]3O)[C@H](O)[C@@H]2O)n1 (some centres not stated) | – | > 100 | – | > 100 | – | > 100 | – | > 100 | – | > 100 | – | – | – | > 100 | – | > 100 | – | > 100 | – | – |
| CC(=O)CC(=O)CCCC(=O)Nc1ccc(Cl)cc1Cl | – | > 100 | – | > 100 | – | > 100 | – | > 100 | – | > 100 | – | – | – | > 100 | – | > 100 | – | > 100 | – | – |
| O=C1C2c3[nH]c4ccccc4c3C3CCSCC3C2C(=O)N1c1ccccc1 (configuration not stated) | – | > 100 | – | > 100 | – | > 100 | – | > 100 | – | > 100 | – | > 100 | – | > 100 | – | > 100 | – | > 100 | – | – |
| N#Cc1c2ccccc2c2nnc3cc(C(F)(F)F)ccc3n12 | 25.7 | > 100 | 58 | > 100 | 29.7 | > 100 | > 100 | > 100 | – | – | – | – | – | – | 99.8 | > 100 | – | – | > 100 | > 100 |
| CC1=CCP(C(F)(F)F)P(C(F)(F)F)C1 (configuration not stated) | – | > 100 | – | > 100 | – | > 100 | – | > 100 | – | > 100 | – | 58.3 | – | – | – | > 100 | – | > 100 | – | – |
| O=C1C(c2ccc(Cl)cc2)=[N+]([O-])c2ccccc21 | – | 28.5 | – | 43.6 | – | 27.7 | – | 31.8 | – | 48.7 | – | 23 | – | 77.3 | – | 30.1 | – | 30.3 | – | – |
| Cc1ccc(C2=[N+]([O-])c3ccccc3C2=O)cc1 | – | 32 | – | > 65 | – | 59.4 | – | 41 | – | > 89.9 | – | 26.6 | – | 97.7 | – | > 31.6 | – | 33 | – | – |
| O=NN(CCCl)C(=O)NCc1ccc[n+]([O-])c1 | – | > 100 | – | > 100 | – | > 100 | – | > 100 | – | > 100 | – | > 100 | – | > 100 | – | > 100 | – | > 100 | – | – |
| O=C(c1ccccc1)c1ccc2cccc(O)c2n1 | – | > 100 | – | – | – | 28 | – | > 100 | – | > 100 | – | 69 | – | > 100 | – | > 100 | – | – | – | – |
| N.N.NCCCCN.O=C([O-])CC(=O)[O-].O=C([O-])CC(=O)[O-].[Pt+4].[Pt+4] | 26.9 | > 100 | > 100 | > 100 | > 100 | > 100 | > 100 | > 100 | > 100 | > 100 | > 100 | > 100 | > 100 | > 100 | > 100 | > 100 | > 100 | > 100 | – | – |
| COC(=O)C/C(C)=C/[C@@H](O)[C@H]1O[C@@H]2CC/C(Cl)=C/C/C=C(/C)[C@H](OC(C)=O)CC(=O)O[C@@H]1C2 | 1.16 | 4.51 | 1.26 | > 25 | – | – | – | – | 8.17 | > 25 | 2.34 | 9.23 | 0.581 | 9.62 | 0.489 | 1.32 | 2.92 | 7.92 | – | – |
| N#C[C@]12CC3(CC[C@H]1CC1(C2)OCCO1)OCCO3 | – | > 100 | – | – | – | > 100 | – | > 100 | – | – | – | > 100 | – | > 100 | – | > 100 | – | > 100 | – | – |
| Cc1ccc(C)c(-n2c(-c3ccc(Br)cc3)csc2=NC(=O)c2ccccc2F)c1 | – | – | – | – | > 100 | > 100 | > 100 | > 100 | > 100 | > 100 | > 100 | > 100 | > 100 | > 100 | > 100 | > 100 | > 100 | > 100 | – | – |
| O=[N+]([O-])c1ccc(OCCNc2cccc3ccccc23)cc1 | – | > 100 | – | > 100 | – | > 100 | – | > 100 | – | > 100 | – | – | – | > 100 | – | > 100 | – | > 100 | – | – |
| CCCCCCC(O)C/C=C/CCCCCC/C(C(=O)OC)=C(/O)C(=O)OCC (configuration not stated) | – | > 100 | – | > 100 | – | > 100 | – | > 100 | – | > 100 | – | – | – | > 100 | – | > 100 | – | > 100 | – | – |
| CC(C)(C)C(=O)Nc1ccccc1Br | – | > 100 | – | > 100 | – | > 100 | – | > 100 | – | > 100 | – | > 100 | – | > 100 | – | > 100 | – | > 100 | – | – |
| O=C(Nc1ncc([N+](=O)[O-])s1)c1cccc([N+](=O)[O-])c1 | 5.41 | > 68.1 | 4.43 | 97.2 | 3.85 | 24.1 | 2.79 | 8.5 | 12.4 | > 100 | 2.44 | 6.91 | – | – | 4.59 | 37.3 | 3.19 | 13.8 | 2.02 | 12.9 |
